The text below walks through data of article PMC4038024 (Clinical pharmacology and therapeutics, 2012).

Broadly, the fraction unbound is free concentration divided by total concentration. As a reminder, the Kp is the ratio of the level in a tissue or fluid to that in plasma or blood. The half-life is the time in which the quantity being followed falls by half. Higher therefore signals slow loss.

The conditions of series [1]: for mean AUCmetabolite/AUCparent ratio, fold higher in CYP3A5 expressors than nonexpressors: blood, after oral tacrolimus; for CLurinary (based on AUCblood) / CLurinary (based on AUCplasma): 0 to 96-hour collection; for total amount of tacrolimus excreted in urine as unchanged drug over 96 hours: oral administration.
For series [2], the system named is mouse mixed lymphocyte reaction. Particulars: compared with tacrolimus; cited from earlier work.
Series [3] has as its target CYP3A5 (Homo sapiens, UniProt P20815). The experiment in a line: Metabolic clearance by CYP3A5. The conditions noted are these: compared with tacrolimus; Supplemental Figure 1.
For series [4] the following is noted: isolated perfused rat kidney; cited from earlier work.
For series [5], the system named is CYP3A5. Particulars: cited from earlier work.
Series [6] can be described thus: In vitro unbound fraction of tacrolimus in plasma and whole blood. Type of series: in vitro ADME. The conditions noted are these: whole blood.
Details of series [7]: species or system human. Particulars: for k(2,1) (glomerular filtration of tacrolimus) / k(3,1) (secretion from efferent arteriole to renal epithelium): derived from estimated parameters; for fub (exchangeable fraction of tacrolimus in blood during glomerular filtration): ordinary least-squares estimation; for Kp: human, kidney/blood, oral, 5 mg, Kp,kidney (apparent tissue-to-blood partitioning coefficient), empirical Bayesian estimation.

A further series can be described thus: clinical. The conditions noted are these: human, 5 mg; for half-life: blood, po, single oral dose 5 mg; for concentration at 96 h: whole blood, oral, Clast, blood concentration at 96 hour.
For series [8] the following is noted: male rats, tacrolimus orally for four days; cited from earlier work.

Entries after “also recorded” stand apart in the source; their conditions may differ. Where two headings read alike, the source gives them in different places.

Sequence of CYP3A5 (Homo sapiens, UniProt P20815) (P20815 whole entry, the tested form may be a part): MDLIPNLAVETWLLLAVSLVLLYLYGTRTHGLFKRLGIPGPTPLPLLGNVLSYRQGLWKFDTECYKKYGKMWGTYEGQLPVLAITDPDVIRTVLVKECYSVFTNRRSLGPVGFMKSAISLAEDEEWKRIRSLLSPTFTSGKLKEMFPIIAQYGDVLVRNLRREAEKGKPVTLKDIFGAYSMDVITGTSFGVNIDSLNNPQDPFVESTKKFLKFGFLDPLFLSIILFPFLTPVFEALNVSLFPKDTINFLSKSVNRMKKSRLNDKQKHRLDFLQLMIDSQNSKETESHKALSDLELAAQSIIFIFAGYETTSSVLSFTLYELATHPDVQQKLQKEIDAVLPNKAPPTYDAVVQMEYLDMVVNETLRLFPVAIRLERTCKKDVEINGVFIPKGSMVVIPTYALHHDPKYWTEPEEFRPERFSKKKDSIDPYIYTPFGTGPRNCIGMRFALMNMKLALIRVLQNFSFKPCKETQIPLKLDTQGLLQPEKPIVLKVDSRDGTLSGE

With `C=CCC1C=C(C)CC(C)CC(OC)C2OC(O)(C(=O)C(=O)N3CCCCC3C(=O)OC(C(C)=CC3CCC(O)C(OC)C3)C(C)C(O)CC1=O)C(C)CC2O` (centres unmarked) [13-DMT, 13-O-desmethyl tacrolimus], in [1], the “mean AUCmetabolite/AUCparent ratio, fold higher in CYP3A5 expressors than nonexpressors” value was 2.0 fold.
For `C=CCC1C=C(C)CC(C)CC(O)C2OC(O)(C(=O)C(=O)N3CCCCC3C(=O)OC(C(C)=CC3CCC(O)C(OC)C3)C(C)C(O)CC1=O)C(C)CC2OC` (centres unmarked) [15-DMT, 15-O-desmethyl tacrolimus], in series [1] (CYP3A5 expressors vs nonexpressors), the “renal excretion in the two genotyped groups” value was “similar”. Further, in [1], the “mean AUCmetabolite/AUCparent ratio, fold higher in CYP3A5 expressors than nonexpressors” value is reported as “did not differ; also recorded: similar”.
Regarding `C=CCC1C=C(C)CC(C)CC(OC)C2OC(O)(C(=O)C(=O)N3CCCCC3C(=O)OC(C(C)=CC3CCC(O)C(O)C3)C(C)C(O)CC1=O)C(C)CC2OC` (centres unmarked) [31-DMT, 31-O-desmethyl tacrolimus], in series [2], the immunosuppressive activity result is on record as “same immunosuppressive activity as tacrolimus”. In series [1], the “mean AUCmetabolite/AUCparent ratio, fold higher in CYP3A5 expressors than nonexpressors” value came out at 2.5 fold. On CYP3A5 [3], the “metabolic clearance by CYP3A5” value is reported as “comparable to that of tacrolimus”.
As to `CCOC(=O)[C@H](CCc1ccccc1)N[C@@H](C)C(=O)N1CCC[C@H]1C(=O)O` [enalapril], in series [4], the “urinary clearance following inhibition of hydrolysis to enalaprilate by paraoxon” value is given as “increased”.
With `Cc1ncc2n1-c1ccc(Cl)cc1C(c1ccccc1F)=NC2` [midazolam], the “hydroxylation activity, fold higher in CYP3A5*1/*3 than CYP3A5*3/*3 kidney microsomes” value in the series on CYP3A5 [5] was 18 fold.
Regarding `C=CC[C@@H]1/C=C(\C)C[C@H](C)C[C@H](OC)[C@H]2O[C@@](O)(C(=O)C(=O)N3CCCC[C@H]3C(=O)O[C@H](/C(C)=C/[C@@H]3CC[C@@H](O)[C@H](OC)C3)[C@H](C)[C@@H](O)CC1=O)[C@H](C)C[C@@H]2OC` [tacrolimus], in series [6], the free fraction (fraction unbound) turned out to be 0.00078 ± 0.00026. The “hydroxylation activity, fold higher in CYP3A5*1/*3 than CYP3A5*3/*3 kidney microsomes” value in the series with CYP3A5 [5] is given as 18 fold. In series [1] (CYP3A5 expressors (N=12)), the “CLurinary (based on AUCblood)” value was 2.01 ± 0.57 mL/h, the “CLurinary (based on AUCplasma)” value is 50.15 ± 13.67 mL/h, the “CLurinary/eGFR (based on AUCblood)” value was 0.028 ± 0.012% and the “CLurinary/eGFR (based on AUCplasma)” value is given as 0.58 ± 0.28%. In series [1] (CYP3A5 nonexpressors (N=12)), the “CLurinary (based on AUCblood)” value is 3.15 ± 1.69 mL/h, the “CLurinary (based on AUCplasma)” value was 97.71 ± 59.89 mL/h, the “CLurinary/eGFR (based on AUCblood)” value is recorded as 0.048 ± 0.032% and the “CLurinary/eGFR (based on AUCplasma)” value was determined as 1.48 ± 1.10%. Besides, the “total amount of tacrolimus excreted in urine as unchanged drug over 96 hours” value in series [1] (CYP3A5 expressors) came out at 271.6 ± 147.4 ng. In series [1] (CYP3A5 nonexpressors), the “total amount of tacrolimus excreted in urine as unchanged drug over 96 hours” value was 642.6 ± 349.6 ng. Moreover, in series [1] (based on blood AUC), the “mean apparent urinary tacrolimus clearance, lower in CYP3A5 expressors compared to nonexpressors” value was 36%. Moreover, the “mean apparent urinary tacrolimus clearance, lower in CYP3A5 expressors compared to nonexpressors” value in [1] (based on plasma AUC) turned out to be 49%. Also, in series [1] (expressors vs nonexpressors), the “AUC0–96 Difference (%)” value is −35.2%, the “AUC0–inf Difference (%)” value is −36.5%, the “CL/F Difference (%)” value amounted to 54.8% and the “CLurinary (based on AUCblood) Difference (%)” value is −36.2%. In series [1] (expressors vs nonexpressors), the “CLurinary (based on AUCplasma) Difference (%)” value is given as −48.7%, the “CLurinary/eGFR (based on AUCblood) Difference (%)” value is −41.7% and the “Clast Difference (%)” value is recorded as −46.2%. Further, the “oral tacrolimus clearance (CL/F), fold higher in CYP3A5 expressors compared to nonexpressors” value in series [1] (mean, expressors vs nonexpressors) is recorded as 1.6 fold. In addition, the “Clast (blood concentration at 96 hours), fold higher in CYP3A5 nonexpressors compared to expressors” value in [1] (nonexpressors vs expressors) is 1.9 fold. In addition, in [7], the “ER greater than fub′” value is recorded as ~ 400 fold. Also, in series [7] (CYP3A5 expressors), the “ER (extraction ratio of tacrolimus from the efferent arteriole)” value is reported as 5.1 ± 3.0%; the “k(0,3) (rate constant, CYP3A5-mediated intra-epithelial metabolism)” value was 0.55 ± 0.52 h⁻¹; the “k(1,3) (back flux from renal epithelium to efferent arteriole)” value came to 0.34 ± 0.05 h⁻¹; the “k(2,3) (secretion from renal epithelium to tubular lumen)” value came to 0.0009 ± 0.0005 h⁻¹. For the same molecule, in series [7] (CYP3A5 expressors), the “k(3,2) (reabsorption from tubular fluid back to renal epithelium)” value was 0.091 ± 0.063 h⁻¹, the “k(2,1) (glomerular filtration of tacrolimus)” value is 0.94 ± 0.76 mL/h, the “k(3,1) (secretion from efferent arteriole to renal epithelium)” value is 2368 ± 1404 mL/h and the “fub (exchangeable fraction of tacrolimus in blood during glomerular filtration)” value was 0.014 ± 0.015%. For the same molecule, the Kp in [7] (CYP3A5 expressors) was 12.1 ± 0.3. Moreover, in [7] (CYP3A5 nonexpressors), the “ER (extraction ratio of tacrolimus from the efferent arteriole)” value is listed as 4.3 ± 4.7%, the “k(1,3) (back flux from renal epithelium to efferent arteriole)” value was 0.36 ± 0.39 h⁻¹, the “k(2,3) (secretion from renal epithelium to tubular lumen)” value is 0.0012 ± 0.0008 h⁻¹ and the “k(3,2) (reabsorption from tubular fluid back to renal epithelium)” value was 0.106 ± 0.057 h⁻¹. Besides, in series [7] (CYP3A5 nonexpressors), the “k(2,1) (glomerular filtration of tacrolimus)” value was 0.77 ± 0.51 mL/h, the “k(3,1) (secretion from efferent arteriole to renal epithelium)” value was 1800 ± 1734 mL/h, the “fub (exchangeable fraction of tacrolimus in blood during glomerular filtration)” value was 0.011 ± 0.006% and the Kp is 23.4 ± 0.04. Also, the “in vivo fub′ (exchangeable fraction in blood) estimated from modeling” value in series [7] (all subjects) is listed as 0.012 ± 0.011%. For the same molecule, in series [7] (steady-state tissue-to-blood partitioning ratio), the “Kp,kidney in CYP3A5 expressors as % of that calculated for nonexpressors” value is reported as about 50%. For the same molecule, the half-life in “clinical” (t1/2, CYP3A5 expressors (N=12)) was 29.9 ± 4.8 h. For the same molecule, the half-life in the series “clinical” (t1/2, CYP3A5 nonexpressors (N=12)) is 31.7 ± 4.3 h. This molecule had a concentration at 96 h in the series “clinical” (CYP3A5 expressors (N=12)) of 0.2 ± 0.1 ng/mL. In the series “clinical” (CYP3A5 nonexpressors (N=12)), this molecule displayed a concentration at 96 h of 0.4 ± 0.1 ng/mL. The “Kp,kid” value in [8] is reported as 12.2.
